The source of these data is paper PMC7935272 (PLoS Pathogens, 2021).

The structures appear in SMILES notation. Values joined by “and” are separate entries in the source; they are usually repeats but may differ in a detail not shown here. Equal values may be shown once. Read-outs that look alike come from different tables or passages of the source.

Data set [1] relates to MeV. Particulars: cited from earlier work; for IC50: Figure 7A source data; for EC50: experimental activity, read-out: EC50.
Data set [2] relates to MeV. Briefly: Cell-based anti-MeV assays of earlier work.
For data set [3] the following is noted: cited from earlier work.
Data set [4] in a line: in vitro. The data set is classed as cell-based, African green monkey. Particulars: African green monkey; Vero-hSLAM, 72 hours. The protocol:
(§1) To determine cytotoxic concentrations Vero-hSLAM cells were plated in 96 well plates (1.1 × 10^4 per well) and incubated with three-fold serial dilutions of compound. After incubation of uninfected cells for 72 hours, PrestoBlue substrate (Invitrogen) was added to quantify cell metabolic activity as described. Signal was measured using a BioTek H1 synergy multimode microplate reader. Where applicable, cytotoxic concentrations (CC50) were calculated based on four-parameter variable slope regression modeling.

Data set [5] concerns Vero-hSLAM cells. Put plainly: in vitro. The data set is classed as cell-based, African green monkey. On the procedure:
as §1

The target of data set [6] is WT MeV L-P complexes (Measles virus, UniProt Q9WMB3). Briefly: In vitro MeV RdRP assay, de novo initiation, 16-nt template, L WT. Particulars: de novo RNA synthesis, S9 Fig. Format: biochemical.
Sequence of WT MeV L-P complexes (Q9WMB3 whole entry): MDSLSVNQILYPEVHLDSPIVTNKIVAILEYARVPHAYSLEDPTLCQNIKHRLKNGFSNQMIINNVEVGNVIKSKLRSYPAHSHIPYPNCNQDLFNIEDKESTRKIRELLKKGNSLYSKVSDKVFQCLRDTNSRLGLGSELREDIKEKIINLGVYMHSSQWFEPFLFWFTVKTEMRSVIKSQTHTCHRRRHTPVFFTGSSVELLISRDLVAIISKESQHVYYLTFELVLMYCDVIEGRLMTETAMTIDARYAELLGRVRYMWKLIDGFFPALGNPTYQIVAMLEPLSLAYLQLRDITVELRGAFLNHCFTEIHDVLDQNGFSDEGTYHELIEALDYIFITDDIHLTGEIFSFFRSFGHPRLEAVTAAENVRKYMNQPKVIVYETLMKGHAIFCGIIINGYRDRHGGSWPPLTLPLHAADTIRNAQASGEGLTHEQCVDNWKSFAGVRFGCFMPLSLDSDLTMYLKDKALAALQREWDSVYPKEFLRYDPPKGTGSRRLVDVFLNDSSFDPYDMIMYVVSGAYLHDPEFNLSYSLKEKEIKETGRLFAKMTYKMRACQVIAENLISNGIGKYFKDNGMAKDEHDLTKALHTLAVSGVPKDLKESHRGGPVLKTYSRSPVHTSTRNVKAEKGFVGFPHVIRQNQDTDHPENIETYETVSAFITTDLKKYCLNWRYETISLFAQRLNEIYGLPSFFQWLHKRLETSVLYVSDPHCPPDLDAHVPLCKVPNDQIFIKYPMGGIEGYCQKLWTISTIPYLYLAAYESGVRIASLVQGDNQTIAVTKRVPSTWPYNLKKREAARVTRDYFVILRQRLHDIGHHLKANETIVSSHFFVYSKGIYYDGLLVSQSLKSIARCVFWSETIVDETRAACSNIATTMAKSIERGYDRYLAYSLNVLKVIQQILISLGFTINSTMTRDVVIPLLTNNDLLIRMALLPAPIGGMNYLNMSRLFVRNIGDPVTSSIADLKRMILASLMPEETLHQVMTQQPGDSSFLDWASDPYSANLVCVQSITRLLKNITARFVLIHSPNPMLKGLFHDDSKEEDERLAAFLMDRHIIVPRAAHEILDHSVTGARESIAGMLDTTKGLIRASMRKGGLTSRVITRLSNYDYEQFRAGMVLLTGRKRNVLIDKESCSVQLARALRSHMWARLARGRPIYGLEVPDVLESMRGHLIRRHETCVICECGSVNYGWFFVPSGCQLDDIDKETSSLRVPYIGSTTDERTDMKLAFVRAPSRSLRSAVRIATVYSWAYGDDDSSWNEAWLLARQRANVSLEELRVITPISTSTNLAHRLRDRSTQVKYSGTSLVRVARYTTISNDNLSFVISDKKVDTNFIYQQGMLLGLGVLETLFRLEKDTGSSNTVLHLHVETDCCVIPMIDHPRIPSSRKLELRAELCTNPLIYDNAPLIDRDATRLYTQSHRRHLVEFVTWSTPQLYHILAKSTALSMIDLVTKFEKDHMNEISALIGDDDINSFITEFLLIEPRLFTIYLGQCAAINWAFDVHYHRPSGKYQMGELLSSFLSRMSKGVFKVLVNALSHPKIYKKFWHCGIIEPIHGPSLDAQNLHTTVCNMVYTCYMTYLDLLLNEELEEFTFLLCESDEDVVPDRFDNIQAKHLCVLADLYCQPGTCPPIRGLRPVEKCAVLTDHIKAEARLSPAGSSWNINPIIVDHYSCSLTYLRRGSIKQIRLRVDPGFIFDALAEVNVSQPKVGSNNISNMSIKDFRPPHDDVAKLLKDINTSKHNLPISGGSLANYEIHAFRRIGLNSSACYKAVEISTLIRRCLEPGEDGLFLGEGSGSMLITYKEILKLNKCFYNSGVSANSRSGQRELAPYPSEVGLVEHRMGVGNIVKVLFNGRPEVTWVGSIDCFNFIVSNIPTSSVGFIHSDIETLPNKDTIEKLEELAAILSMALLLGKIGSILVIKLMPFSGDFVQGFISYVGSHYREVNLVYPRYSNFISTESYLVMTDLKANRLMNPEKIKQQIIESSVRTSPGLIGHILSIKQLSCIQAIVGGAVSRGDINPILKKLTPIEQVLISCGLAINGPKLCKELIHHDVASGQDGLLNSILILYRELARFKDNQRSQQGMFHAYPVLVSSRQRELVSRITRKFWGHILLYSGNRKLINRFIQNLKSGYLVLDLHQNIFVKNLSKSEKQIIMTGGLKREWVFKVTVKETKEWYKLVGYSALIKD
Sequence of WT MeV L-P complexes (Q9WMB4 whole entry partner): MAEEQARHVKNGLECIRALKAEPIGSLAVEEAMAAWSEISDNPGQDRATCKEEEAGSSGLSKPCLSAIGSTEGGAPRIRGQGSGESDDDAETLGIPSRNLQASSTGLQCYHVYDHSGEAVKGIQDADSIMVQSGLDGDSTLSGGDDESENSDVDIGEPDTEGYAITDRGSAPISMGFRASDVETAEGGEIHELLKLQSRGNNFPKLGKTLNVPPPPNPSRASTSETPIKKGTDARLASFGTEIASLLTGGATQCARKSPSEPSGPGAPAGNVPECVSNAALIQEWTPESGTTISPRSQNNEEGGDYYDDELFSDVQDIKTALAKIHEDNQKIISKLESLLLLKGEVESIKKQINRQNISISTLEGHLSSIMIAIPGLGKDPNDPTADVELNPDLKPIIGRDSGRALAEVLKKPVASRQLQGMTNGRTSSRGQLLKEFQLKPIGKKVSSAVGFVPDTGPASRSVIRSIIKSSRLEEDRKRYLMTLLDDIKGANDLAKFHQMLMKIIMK
In data set [7] the test system is MeV. Put plainly: Antiviral dose-response assay, MeV-NanoPEST reporter virus in Vero-hSLAM cells.
Description: Compound was added in three-fold dilutions to 96-well plates seeded with Vero-hSLAM cells (1.1 × 10^4 per well), followed by infection (MOI = 0.2 TCID50 units per cell) with a recombinant MeV-NanoPEST reporter virus harboring Nano luciferase [36]. After 30-hour incubation, Nano luciferase signals were quantified using a BioTek Synergy H1 multimode plate reader. Raw data were normalized according to norm. value [%] = (RLUsample—RLUmin) / (RLUmax—RLUmin)*100, with RLUmax representing vehicle (DMSO) volume equivalent-treated infected wells and RLUmin representing infected wells exposed to 1 mg/ml cycloheximide. Four-parameter variable slope regression modeling was used to determine EC50 and EC90 concentrations.
Data set [8] concerns Vero-hSLAM cells.
The subject of data set [9] is MeV. Briefly: Synergy analysis ERDRP-0519 and GHP-88309, antiviral. Particulars: ERDRP519 0.00 µM. The data set is classed as cell-based.
Where [10] appears, read: −log10(EC50) of literature EC50.

What is called IC50 is the concentration that inhibits the measured activity by half. As a reminder, the EC50 is the concentration that produces a half-maximal response.

On to `CC(C)N(C(C)C)S(=O)(=O)c1ccc(NC(=O)c2cc(C(F)(F)F)cn2C)cc1` [15o, S(=O)(=O)(N(C(C)C)C(C)C)c1ccc(NC(=O)c2n(C)cc(C(F)(F)F)c2)cc1], for which the half-inhibitory concentration (IC50) is 0.529 µM in data set [1], 0.53 µM in [2] (Figure 7A source data) and 0.531 µM in data set [2] (setting [10]). Also, the EC50 in [1] was 0.52 µM. In addition, the CC50 in data set [3] is over 300 µM.

In the case of `CCCN(CCC)S(=O)(=O)c1ccc(NC(=O)c2cc(C(F)(F)F)cn2C)cc1` [15p, S(=O)(=O)(N(CCC)CCC)c1ccc(NC(=O)c2n(C)cc(C(F)(F)F)c2)cc1], the IC50 in data set [1], in data set [2] (Figure 7A source data) and in data set [2] (setting [10]) was 0.19 µM throughout. Moreover, the EC50 in [1] is 0.19 µM. For the same compound, the CC50 in [3] is over 300 µM.

As for `C=CCN(CC=C)S(=O)(=O)c1ccc(NC(=O)c2cc(C(F)(F)F)cn2C)cc1` [15r, S(=O)(=O)(N(CC=C)CC=C)c1ccc(NC(=O)c2n(C)cc(C(F)(F)F)c2)cc1], the IC50 in [1], in data set [2] (Figure 7A source data) and in data set [2] (setting [10]) was 3.3 µM in each case. The EC50 in data set [1] is 3.3 µM. In data set [3], the CC50 is 34 µM.

Turning to `Cn1nc(C(F)(F)F)cc1C(=O)Nc1ccc(S(=O)(=O)N2CCC[C@@H]2C(=O)O)cc1` [AS-105, S(=O)(=O)(N1[C@@H](C(=O)O)CCC1)c1ccc(NC(=O)c2n(C)nc(C(F)(F)F)c2)cc1], the IC50 in data set [1], in data set [2] (Figure 7A source data) and in data set [2] (setting [10]) was 23 µM each time. In data set [1], the EC50 is 23 µM. For the same compound, in data set [3], the CC50 is over 300 µM.

For the compound `Cn1nc(C(F)(F)F)cc1C(=O)Nc1ccc(S(=O)(=O)N2CCCCC2)cc1` [AS-136a, S(=O)(=O)(N1CCCCC1)c1ccc(NC(=O)c2n(C)nc(C(F)(F)F)c2)cc1], the IC50 in data set [1], in data set [2] (Figure 7A source data) and in [2] (setting [10]) was 0.014 µM each time. In [1], the half-maximal effective concentration (EC50) was 0.014 µM. For the same compound, the CC50 in data set [3] was over 300 µM.

On to `Cn1nc(C(F)(F)F)cc1C(=O)Nc1ccc(S(=O)(=O)N2CCCC[C@@H]2CCOCc2ccc(N=[N+]=[N-])cc2)cc1` [ERDRP-0519az, S(=O)(=O)(N1[C@@H](CCOCc2ccc(N=[N+]=[N-])cc2)CCCC1)c1ccc(NC(=O)c2n(C)nc(C(F)(F)F)c2)cc1], for which the CC50 in data set [4] was over 100 µM. The “Cytotoxicity, normalized metabolic activity (Figure 5B)” value in data set [5] (cpd concentration 0.045725) was 97.5938 and 98.2663 and 103.31; in [5] (cpd concentration 0.137174), 101.061 and 94.8618 and 104.907; in data set [5] (cpd concentration 0.411523) it was 95.7655 and 116.003 and 116.276; in data set [5] (cpd concentration 1.23457), 92.9074 and 113.376 and 114.469; in data set [5] (cpd concentration 3.7037), 94.1683 and 104.487 and 118.02; in data set [5] (cpd concentration 11.1111), 88.7254 and 96.8582 and 105.432. In addition, the “Cytotoxicity, normalized metabolic activity (Figure 5B)” value in data set [5] (cpd concentration 33.3333) is 97.5097 and 90.4066 and 94.9249; in data set [5] (cpd concentration 100), 99.0228 and 98.1192 and 101.776. The cytotoxicity entry in [5] (highest concentration tested (100 μM)) is listed as “No cytotoxicity was detectable”. Also, in data set [6], the “bioactivity in the in vitro RdRP assay” value is on record as “diminished potency”. The compound also yielded a 50% effective concentration (EC50) in data set [7] of 12.1 µM. The “MeV inhibition, normalized reporter signal (Figure 5B)” value was 95.5633 and 136.086 and 77.2785 in data set [7] (cpd concentration 0.045725); 112.785 and 92.1722 and 86.1147 in data set [7] (cpd concentration 0.137174); 116.552 and 130.546 and 132.822 in [7] (cpd concentration 0.411523); 119.15 and 109.045 and 127.688 in data set [7] (cpd concentration 1.23457); 44.8748 and 67.0329 and 58.1588 in data set [7] (cpd concentration 11.1111); 8.061 and 7.668 and 10.5185 in data set [7] (cpd concentration 33.3333). Moreover, the “MeV inhibition, normalized reporter signal (Figure 5B)” value in data set [7] (cpd concentration 100) was 2.512 and 3.634 and 2.904.

On to `NC(=O)c1c(F)cccc1-c1cccc2cnccc12` [GHP88309], for which the “S4 B cytotoxicity matrix, normalized value” in data set [8] is 100.00; in data set [8] (ERDRP519 0.00 µM, GHP88309 0.27 µM), 99.90; in data set [8] (ERDRP519 0.00 µM, GHP88309 0.82 µM) it was 99.44 and 91.52; in [8] (ERDRP519 0.00 µM, GHP88309 7.41 µM) it was 97.69; in [8] (ERDRP519 0.00 µM, GHP88309 66.67 µM), 98.85 and 98.57; in data set [8] (ERDRP519 0.00 µM, GHP88309 200.00 µM), 92.50 and 87.59 and 94.52. Further, the “S4 A antiviral matrix, normalized value” is 100.00 in [9] (GHP88309 0.03 µM); 78.32 and 88.03 and 100.19 and 97.70 in data set [9] (GHP88309 0.08 µM); 50.86 and 41.77 and 80.59 and 41.41 in data set [9] (GHP88309 0.74 µM); 14.61 and 17.48 and 22.13 and 11.92 in data set [9] (GHP88309 2.22 µM).

For `O=C(Nc1ccc(S(=O)(=O)N2CCCC2)cc1)c1nccn1-c1ccccc1C(F)(F)F` [MS-12, S(=O)(=O)(N1CCCC1)c1ccc(NC(=O)c2n(-c3c(C(F)(F)F)cccc3)ccn2)cc1], the IC50 in data set [1], in data set [2] (Figure 7A source data) and in data set [2] (setting [10]) was 65 µM throughout. The EC50 in data set [1] is 65 µM. The CC50 in data set [3] is over 300 µM.

On to `Cn1nc(C(F)(F)F)cc1C(=O)Cc1ccc(S(=O)(=O)N2CCCC2)cc1` [MS-26, S(=O)(=O)(N1CCCC1)c1ccc(CC(=O)c2n(C)nc(C(F)(F)F)c2)cc1], for which the concentration for half-maximal inhibition (IC50) in data set [1], in data set [2] (Figure 7A source data) and in data set [2] (setting [10]) was 15.5 µM in each case. Further, in data set [1], the concentration giving a half-maximal response (EC50) was 15.5 µM. For the same compound, the CC50 in [3] is over 300 µM.

Turning to `Cn1nc(C(F)(F)F)cc1C(O)Cc1ccc(S(=O)(=O)N2CCCC2)cc1` (centres unmarked) [MS-27, S(=O)(=O)(N1CCCC1)c1ccc(CC(O)c2n(C)nc(C(F)(F)F)c2)cc1], the IC50 in data set [1], in data set [2] (Figure 7A source data) and in [2] (setting [10]) was 41 µM in each case. Besides, the EC50 in data set [1] is 41 µM. In data set [3], the CC50 was over 300 µM.

Regarding `Cn1nc(C(F)(F)F)cc1C(=O)Nc1ccc(S(=O)(=O)N2CCCC2)cc1` [compound 16677, S(=O)(=O)(N1CCCC1)c1ccc(NC(=O)c2n(C)nc(C(F)(F)F)c2)cc1], the IC50 in data set [1] was 0.239 µM; in [2] (Figure 7A source data), 0.24 µM; in data set [2] (setting [10]), 0.24 µM. The EC50 in [1] was 0.23 µM. For the same compound, in [3], the CC50 was over 300 µM.
